Measured values as given in the NIST ThermoML archive (doi:10.1021/je100104v).
± gives the expanded uncertainty stated by the source.

Tests used:
[1] = xn = mol fraction of the nth substance listed; conditions: Liquid; for electrical conductivity / viscosity: 101.3 kPa; for electrical conductivity: Eutech Cyberscan Con 11; for mass density: 101 kPa
[2] = refractive index (Na D-line) (dimensionless); xn = mol fraction of the nth substance listed; conditions: 101.3 kPa, Liquid, Standard Abbe refractometry

NC(=O)C(F)(F)F [2,2,2-trifluoroacetamide] + C[P+](c1ccccc1)(c1ccccc1)c1ccccc1.[Br-]
Conditions | electrical conductivity, [1] [S/m] | mass density, [1] [kg/m3] | refractive index, [2] | viscosity, [1] [mPa·s]
278.1 K, x2 = 0.111 | 0.0134 ± 0.014 | – | – | 657.7
288.15 K, x1 = 0.111 | – | – | 1.4913 ± 0.0054 | –
288.15 K, x2 = 0.111 | 0.0351 ± 0.014 | – | – | 405.9
298.15 K, x1 = 0.111 | – | – | 1.4849 ± 0.0054 | –
298.15 K, x2 = 0.111 | 0.0848 ± 0.014 | 1394.7 ± 6.3 | – | 136.5 ± 60
308.15 K, x1 = 0.111 | – | – | 1.4824 ± 0.0054 | –
308.15 K, x2 = 0.111 | 0.182 ± 0.014 | 1383.7 ± 6.2 | – | 71.3 ± 12
318.15 K, x1 = 0.111 | – | – | 1.4782 ± 0.0054 | –
318.15 K, x2 = 0.111 | 0.282 ± 0.014 | 1372.7 ± 6 | – | 39 ± 5
328.15 K, x1 = 0.111 | – | – | 1.4745 ± 0.0054 | –
328.15 K, x2 = 0.111 | 0.349 ± 0.014 | 1361.6 ± 5.9 | – | 24.1 ± 3.3
338.15 K, x1 = 0.111 | – | – | 1.4737 ± 0.0054 | –
338.15 K, x2 = 0.111 | 0.418 ± 0.014 | 1350.4 ± 5.7 | – | 16.6 ± 2.3
348.15 K, x2 = 0.111 | 0.482 ± 0.014 | 1339.3 ± 5.6 | – | 11.1 ± 1.6
358.15 K, x2 = 0.111 | 0.55 ± 0.02 | 1328.2 ± 5.5 | – | 0.9
368.15 K, x2 = 0.111 | 0.609 ± 0.014 | – | – | –

[Cl-].c1ccc(C[P+](c2ccccc2)(c2ccccc2)c2ccccc2)cc1 [benzyltriphenylphosphonium chloride] + OCC(O)CO
Conditions | electrical conductivity, [1] [S/m] | refractive index, [2] | viscosity, [1] [mPa·s]
328.15 K, x1 = 0.167 | – | – | 553.7
328.15 K, x2 = 0.167 | – | 1.5502 ± 0.0064 | –
338.15 K, x1 = 0.167 | 0.00187 | – | 339.3 ± 140
338.15 K, x2 = 0.167 | – | 1.5168 ± 0.0064 | –
348.15 K, x1 = 0.167 | 0.00167 | – | 118.6 ± 24
358.15 K, x1 = 0.167 | 0.00151 | – | 75.5 ± 9.8
368.15 K, x1 = 0.167 | 0.00139 | – | 38.7 ± 4.3

[Cl-].c1ccc(C[P+](c2ccccc2)(c2ccccc2)c2ccccc2)cc1 [benzyltriphenylphosphonium chloride] + OCCO
Conditions | electrical conductivity, [1] [S/m] | refractive index, [2] | viscosity, [1] [mPa·s]
328.15 K, x1 = 0.25 | 0.0485 ± 0.014 | – | 201.9
328.15 K, x2 = 0.25 | – | 1.5258 ± 0.0054 | –
338.15 K, x1 = 0.25 | 0.0199 ± 0.014 | – | 85.5 ± 20
338.15 K, x2 = 0.25 | – | 1.5309 ± 0.0054 | –
348.15 K, x1 = 0.25 | 0.00164 | – | 59.3 ± 7.2
358.15 K, x1 = 0.25 | 0.00148 | – | 50.5 ± 5.1
368.15 K, x1 = 0.25 | 0.00136 | – | 35.9 ± 4.9

C[P+](c1ccccc1)(c1ccccc1)c1ccccc1.[Br-] [methyltriphenylphosphonium bromide] + OCC(O)CO
Conditions | electrical conductivity [S/m] | mass density [kg/m3] | refractive index | viscosity [mPa·s]
[1], 278.1 K, x1 = 0.3636 | 0.00375 | – | – | –
[1], 288.15 K, x1 = 0.3636 | 0.00826 ± 0.014 | – | – | –
[1], 298.15 K, x1 = 0.3636 | 0.0165 ± 0.014 | 1289.9 ± 5 | – | –
[1], 308.15 K, x1 = 0.3636 | 0.0315 ± 0.014 | 1283 ± 5 | – | –
[1], 318.15 K, x1 = 0.3636 | 0.0555 ± 0.014 | 1275.9 ± 4.8 | – | 887.1
[1], 328.15 K, x1 = 0.3636 | 0.0901 ± 0.014 | 1268.8 ± 4.7 | – | 414.9 ± 190
[1], 338.15 K, x1 = 0.3636 | 0.127 ± 0.014 | 1261.9 ± 4.6 | – | 205.7 ± 63
[1], 348.15 K, x1 = 0.3636 | 0.182 ± 0.014 | 1255 ± 5 | – | 104.8 ± 19
[1], 358.15 K, x1 = 0.3636 | 0.242 ± 0.014 | 1248 ± 4 | – | 77.4 ± 10
[1], 368.15 K, x1 = 0.3636 | 0.315 ± 0.014 | – | – | 36.9 ± 4.2
[2], 288.15 K, x2 = 0.3636 | – | – | 1.5708 ± 0.0054 | –
[2], 298.15 K, x2 = 0.3636 | – | – | 1.5666 ± 0.0054 | –
[2], 308.15 K, x2 = 0.3636 | – | – | 1.5656 ± 0.0054 | –
[2], 318.15 K, x2 = 0.3636 | – | – | 1.5627 ± 0.0054 | –
[2], 328.15 K, x2 = 0.3636 | – | – | 1.5607 ± 0.0054 | –
[2], 338.15 K, x2 = 0.3636 | – | – | 1.5578 ± 0.0054 | –

C[P+](c1ccccc1)(c1ccccc1)c1ccccc1.[Br-] [methyltriphenylphosphonium bromide] + OCCO
Conditions | electrical conductivity, [1] [S/m] | mass density, [1] [kg/m3] | refractive index, [2] | viscosity, [1] [mPa·s]
278.1 K, x1 = 0.2 | 0.0371 ± 0.014 | – | – | 345 ± 140
288.15 K, x1 = 0.2 | 0.055 ± 0.014 | – | – | 186.1 ± 53
288.15 K, x2 = 0.2 | – | – | 1.5622 ± 0.0054 | –
298.15 K, x1 = 0.2 | 0.0788 ± 0.014 | 1232.6 ± 4.2 | – | 109.8 ± 20
308.15 K, x1 = 0.2 | 0.109 ± 0.014 | 1225.6 ± 4.1 | – | 68.6 ± 8.2
308.15 K, x2 = 0.2 | – | – | 1.5542 ± 0.0054 | –
318.15 K, x1 = 0.2 | 0.144 ± 0.014 | 1218.5 ± 4 | – | 39.5 ± 4.4
328.15 K, x1 = 0.2 | 0.188 ± 0.014 | 1211.4 ± 3.9 | – | 19.7 ± 2.2
328.15 K, x2 = 0.2 | – | – | 1.5483 ± 0.0054 | –
338.15 K, x1 = 0.2 | 0.234 ± 0.014 | 1204.3 ± 3.8 | – | 5.4 ± 0.6
338.15 K, x2 = 0.2 | – | – | 1.5446 ± 0.0054 | –
348.15 K, x1 = 0.2 | 0.285 ± 0.014 | 1197.2 ± 3.7 | – | 1.8 ± 0.2
358.15 K, x1 = 0.2 | 0.338 ± 0.014 | 1190 ± 3.7 | – | –
368.15 K, x1 = 0.2 | 0.382 ± 0.014 | – | – | –
